Results from ChEMBL document CHEMBL4316608, “Artemisinin-indole and artemisinin-imidazole hybrids: Synthesis, cytotoxic evaluation and reversal effects on multidrug resistance in MCF-7/ADR cells” (Bioorg Med Chem Lett, 2019).
Where a name gives a salt, the structure may show the parent alone.

What was measured:
MCF7 = experiment: Antiproliferative activity against human MCF7 cells measured after 48 hrs by MTT assay; format: functional, cell-based; settings: MCF7, 48 h
NCI/ADR-RES = experiment: Potentiation of adriamycin-induced antiproliferative activity against human MCF7/ADR cells assessed as fold reduction in adriamycin IC50 at 5 uM measured after 48 hrs by MTT assay; format: functional
[1] = Toxicity in human MCF7 cells assessed as inhibition of cell proliferation at 5 uM measured after 48 hrs by MTT assay; format: cell-based
L02 = experiment: Cytotoxicity against human L02 cells measured after 48 hrs by MTT assay; format: cell-based; settings: L02, 48 h
MDA-MB-231 = experiment: Antiproliferative activity against human MDA-MB-231 cells measured after 48 hrs by MTT assay; format: functional, cell-based; settings: MDA-MB-231, 48 h
A549 = experiment: Antiproliferative activity against human A549 cells measured after 48 hrs by MTT assay; format: functional, cell-based; settings: A549, 48 h
HepG2 = experiment: Antiproliferative activity against human HepG2 cells measured after 48 hrs by MTT assay; format: functional, cell-based; settings: HepG2, 48 h
ADR5000 cell line = experiment: Cytotoxicity against human CEM/ADR5000 cells by XTT assay; format: functional, cell-based
CCRF-CEM = experiment: Cytotoxicity against human CCRF-CEM cells by XTT assay; format: functional, cell-based

SMILES	IC50 (MCF7) [µM]	fold change (FC) (NCI/ADR-RES)	inhibition at 48 h, 5 µM [1] [%]	IC50 (L02) [µM]	IC50 (MDA-MB-231) [µM]	IC50 (A549) [µM]	IC50 (HepG2) [µM]	IC50 (ADR5000 cell line) [µM]	IC50 (CCRF-CEM) [µM]
C[C@H]1[C@H](OC(=O)CCC(=O)OCCn2ccnc2[N+](=O)[O-])O[C@@H]2O[C@@]3(C)CC[C@H]4[C@H](C)CC[C@@H]1[C@@]24OO3	16.4	27.09	13.5	50.2	39.4	14	23.7		
C[C@H]1[C@H](OC(=O)CCC(=O)OCCn2cnc([N+](=O)[O-])c2)O[C@@H]2O[C@@]3(C)CC[C@H]4[C@H](C)CC[C@@H]1[C@@]24OO3	14	43.48	7.78	56.2	82.3	12.7	34.9		
C[C@H]1[C@H](OC(=O)CCC(=O)O)O[C@@H]2O[C@@]3(C)CC[C@H]4[C@H](C)CC[C@@H]1[C@@]24OO3 [ARTESUNATE]	38.7			72.2	75.7	50.7	39.9		
COc1cccc2c1C(=O)c1c(O)c3c(c(O)c1C2=O)C[C@@](O)(C(=O)CO)C[C@@H]3O[C@H]1C[C@H](N)[C@H](O)[C@H](C)O1 [DOXORUBICIN HYDROCHLORIDE]				0.79		1.13			
C[C@@H]1CC[C@H]2[C@@H](C)C(OC(=O)/C=C/c3cc4ccccc4[nH]3)O[C@@H]3O[C@@]4(C)CC[C@@H]1[C@]32OO4 (stereo partly specified)	> 50	61.05	5.38	> 100	> 100	> 50	> 50		
C[C@H]1[C@H](OC(=O)CCC(=O)OCCCCn2cnc(Br)c2)O[C@@H]2O[C@@]3(C)CC[C@H]4[C@H](C)CC[C@@H]1[C@@]24OO3	11.6	5.56	8.95	41.3	> 100	18.9	35.9		
C[C@@H]1CC[C@@H]2[C@]34OO[C@](C)(CC[C@@H]13)O[C@H]4OC[C@]2(C)O								90	156
C[C@H]1[C@H](OC(=O)CCC(=O)OCCCCn2cnc(C#N)c2C#N)O[C@@H]2O[C@@]3(C)CC[C@H]4[C@H](C)CC[C@@H]1[C@@]24OO3	15.2	4.1	11.2	42.9	50.8	17.9	32.3		
COc1ccc(CCN(C)CCCC(C#N)(c2ccc(OC)c(OC)c2)C(C)C)cc1OC (stereo unspecified)		39.62							
C[C@H]1[C@H](OC(=O)CCC(=O)OCCCn2ccnc2[N+](=O)[O-])O[C@@H]2O[C@@]3(C)CC[C@H]4[C@H](C)CC[C@@H]1[C@@]24OO3	12.9	16.69	22.3	46.4	> 100	20.9	39.3		
C[C@H]1[C@H](OC(=O)CCC(=O)OCCn2cnc(C#N)c2C#N)O[C@@H]2O[C@@]3(C)CC[C@H]4[C@H](C)CC[C@@H]1[C@@]24OO3	10.8	5.41	13.7	49.1	> 100	12.4	25.6		
C[C@H]1[C@H](OC(=O)CCC(=O)OCCCCn2ccnc2[N+](=O)[O-])O[C@@H]2O[C@@]3(C)CC[C@H]4[C@H](C)CC[C@@H]1[C@@]24OO3	9.78	14.71	19.8	45.7	85.2	16.5	21.2		
COc1ccc2[nH]cc(C(=O)OC3O[C@@H]4O[C@@]5(C)CC[C@H]6[C@H](C)CC[C@@H]([C@H]3C)[C@@]46OO5)c2c1 (stereo partly specified)	14.5	71.89	19.8	36.4	70.4	13.4	27.7		
C[C@H]1[C@H](OC(=O)CCC(=O)OCCCCn2cc(C#N)nc2Cl)O[C@@H]2O[C@@]3(C)CC[C@H]4[C@H](C)CC[C@@H]1[C@@]24OO3	13.6	11.17	16.6	52.3	> 100	23.3	40.2		
C[C@@H]1CC[C@H]2[C@@H](C)C(=O)O[C@@H]3O[C@@]4(C)CC[C@@H]1[C@]32OO4 [ARTEMISININ]	> 50			> 100	> 100	> 50	> 50		
C[C@H]1[C@H](OC(=O)CCC(=O)OCCCn2cnc(C#N)c2C#N)O[C@@H]2O[C@@]3(C)CC[C@H]4[C@H](C)CC[C@@H]1[C@@]24OO3	16.2	4.37	15	66.2	93.2	26.7	> 50		
C[C@H]1[C@H](OC(=O)CCC(=O)OCCCn2cnc(Br)c2)O[C@@H]2O[C@@]3(C)CC[C@H]4[C@H](C)CC[C@@H]1[C@@]24OO3	12.4	5.6	23.2	> 100	80.9	26	41.6		
C[C@H]1[C@H](OC(=O)CCC(=O)OCCn2cnc(Br)c2)O[C@@H]2O[C@@]3(C)CC[C@H]4[C@H](C)CC[C@@H]1[C@@]24OO3	13.1	6.37	12.4	66.9	> 100	24.7	31.9		
C[C@H]1[C@H](OC(=O)CCC(=O)OCCCn2cc(C#N)nc2Cl)O[C@@H]2O[C@@]3(C)CC[C@H]4[C@H](C)CC[C@@H]1[C@@]24OO3	13.8	8.51	12.8	72.8	> 100	19.6	> 50		
C[C@@H]1CC[C@H]2[C@@H](C)C(OC(=O)c3c[nH]c4ccccc34)O[C@@H]3O[C@@]4(C)CC[C@@H]1[C@]32OO4 (stereo partly specified)	6.78	95.85	18.9	42.6	58.9	12.9	15.2		
C[C@H]1[C@H](OC(=O)CCC(=O)OCCCCn2cnc([N+](=O)[O-])c2)O[C@@H]2O[C@@]3(C)CC[C@H]4[C@H](C)CC[C@@H]1[C@@]24OO3	15.4	26.06	20.2	77.5	57	25.8	30.2		
C[C@H]1[C@H](OC(=O)CCC(=O)OCCCn2cnc([N+](=O)[O-])c2)O[C@@H]2O[C@@]3(C)CC[C@H]4[C@H](C)CC[C@@H]1[C@@]24OO3	12.7	15.72	22.3	34.3	80.9	20	33.3		
C[C@H]1[C@H](OC(=O)CCC(=O)OCCn2cc(C#N)nc2Cl)O[C@@H]2O[C@@]3(C)CC[C@H]4[C@H](C)CC[C@@H]1[C@@]24OO3	17.5	9.24	21.3	61.2	66.4	20.7	44.3		
